From patent US20260217652A1, “PHENYL-SUBSTITUTED HETEROARYL COMPOUND AND PHARMACEUTICAL COMPOSITION COMPRISING SAME, PREPARATION METHOD THEREFOR AND USE THEREOF” (SHANGHAI MEIYUE BIOTECH DEVELOPMENT CO., LTD., priority 2023, published 2026)

Key:
p38 MAPK/MK2 = molecular target: T1, p38 MAPK/MK2 (Homo sapiens, UniProt Q16539); test: In vitro activity assay of p38 MAPK/MK2 (Z-LYTE kinase assay kit); assay type: biochemical; settings: active p38α, inactive MK2, Ser/Thr 4; 1-hour reaction at 20° C.
T1 construct: purchased Carna (p38α); Abcam (MK2) 04-152; 79910
In short: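 FRET-based Z-LYTE assay; compound tested from […] top concentration, 5-fold serial dilution, 8 points, duplicate wells, 1% DMSO. Kinase reaction 1 h at 20° C, then development reagent 1 h at room temperature; fluorescence read at Ex 400/Em 445 and 520 nm. IC50 from concentration-effect curve fit.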

p38 MAPK/MK5 = molecular target: T2, p38 MAPK/MK5 (Homo sapiens, UniProt Q16539); test: In vitro activity assay of p38 MAPK/MK5 (Z-LYTE kinase assay kit); assay type: biochemical; settings: active p38α, inactive MK5, Ser/Thr 4; 4-hour reaction at 20° C.
T2 construct: purchased Carna (p38α); Abcam (MK5) 04-152; 217826
Procedure: The inhibitory effect of the compound on p38 MAPK/MK5 was evaluated using the Z-LYTE kinase assay kit (Thermo, PV3177). The test compound was dissolved in DMSO to obtain a 10 mM stock solution and stored at −20° C. for future use. The initial concentration of the compound was […], with 1% DMSO, 5-fold serial dilution, 8 concentrations, and duplicate wells. […] After a 4-hour reaction at 20° C., Development Reagent A diluted 2048-fold was added to each well, followed by incubation at room temperature for 1 hour. The reaction was terminated by adding 5 µL of stop buffer, and the plate was read using a microplate reader (Ex. 400 nm, Em. 445 nm; Ex. 400 nm, Em. 520 nm). The concentration-effect curve was fitted using GraphPad Prism 8 software, and the compound concentration resulting in 50% inhibition, IC50, was calculated.

[1] = test system: TNF-α in human PBMC cells; test: In vitro TNF-α activity assay in human PBMC cell supernatant (LPS, ELISA); assay type: cell-based; settings: Homo sapiens, PBMC, 24 h, LPS 100 ng/mL, read-out: p38 MAPK/TNF-α IC50
Procedure: The inhibitory effect of the compound on TNF-α in the supernatant of human PBMC cells was evaluated using an ELISA detection kit (Beyotime, PI518). The test compound was dissolved in DMSO to obtain a 10 mM stock solution and stored at −20° C. for future use. The initial concentration of the compound was […], followed by 5-fold serial dilution to obtain 6 concentrations. Cells were plated in duplicate, and ELISA was performed in single wells. The final concentration of DMSO was 0.4%. Alternatively, the initial concentration of the compound, dilution factor, number of concentration gradients, and replicates could be adjusted based on the specific screening conditions.
Fresh human peripheral blood mononuclear cells (PBMCs) (Sailybio) were seeded at a density of 2×10^5 cells per well in a 96-well plate (Corning, 3599), with each well containing 100 μL of RPMI-1640 (Gibco #A1049101)+10% FBS (Gibco, 10099141C), and incubated overnight at 37° C. under 5% CO2. Test compounds were added to the 96-well culture plate at a volume of 25 μL per well. After 1 hour, 5 μL of LPS was added to achieve a final concentration of 100 ng/mL. No LPS and compound were added to the negative control wells, and no compound was added to the positive control wells. The mixture was further incubated for 24 hours at 37° C. under 5% CO2. Subsequently, the cell culture supernatant was collected by centrifugation at 500 rcf for 8 minutes. The concentration of TNF-α was measured according to the operation manual of the ELISA kit. The concentration-effect curve was fitted using GraphPad Prism 8 software, and the compound concentration resulting in 50% inhibition, IC50, was calculated.

[2] = In vitro liver microsome stability, rat; assay type: in vitro ADME; settings: liver microsomes, 0.5 mg/mL microsomes, 1 μM compound, NADPH, 37° C., read-out: Rat liver microsomes Half-life T1/2
Procedure: (§1) The reference compound used in this experiment was Ketanserin, and the final concentration of microsomes in the experimental system was 0.5 mg/mL. The PBS buffer was a 50 mM K2HPO4 buffer. The concentration of the test compound was 1 μM. The microsomes were added to PBS, and the control/test compounds were respectively added to the corresponding reaction systems, mixed thoroughly, and pre-incubated in a 37° C. water bath for 5 minutes. The reaction was initiated by adding 20 mM NADPH solution under 37° C. water bath conditions (for the No NADPH samples, an equal volume of PBS solution was used as a substitute for the 20 mM NADPH solution). At the reaction time points of 0 min, 10 min, 30 mun, 60 min, and 90 min, 30 μL of reaction samples were taken from each reaction system (for the No NADPH samples, sampling was performed at 0 min and 90 min), and the reaction was immediately terminated by adding 300 μL of the internal standard acetonitrile solution. After centrifugation at 4000 rpm, the supernatant was taken and mixed thoroughly with an equal volume of pure water. The samples at each time point were analyzed by LC-MS/MS (AB Triple Quard 5500) to determine the compound content, and the T1/2 was calculated.

[3] = In vitro liver microsome stability, human; assay type: in vitro ADME; settings: liver microsomes, 0.5 mg/mL microsomes, 1 μM compound, NADPH, 37° C., read-out: Human liver microsomes Half-life T1/2
Procedure: as §1

T1 sequence (Q16539 whole entry): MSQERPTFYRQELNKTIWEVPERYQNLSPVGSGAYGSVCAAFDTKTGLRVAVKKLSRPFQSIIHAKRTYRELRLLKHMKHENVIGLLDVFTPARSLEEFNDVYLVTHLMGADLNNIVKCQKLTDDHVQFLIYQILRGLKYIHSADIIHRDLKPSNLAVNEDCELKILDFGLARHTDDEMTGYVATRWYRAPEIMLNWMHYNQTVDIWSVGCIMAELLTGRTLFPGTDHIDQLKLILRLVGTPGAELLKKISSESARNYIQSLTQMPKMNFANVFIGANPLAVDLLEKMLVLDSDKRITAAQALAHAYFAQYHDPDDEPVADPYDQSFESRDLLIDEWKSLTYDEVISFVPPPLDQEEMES
T1 sequence (P49137 whole entry partner): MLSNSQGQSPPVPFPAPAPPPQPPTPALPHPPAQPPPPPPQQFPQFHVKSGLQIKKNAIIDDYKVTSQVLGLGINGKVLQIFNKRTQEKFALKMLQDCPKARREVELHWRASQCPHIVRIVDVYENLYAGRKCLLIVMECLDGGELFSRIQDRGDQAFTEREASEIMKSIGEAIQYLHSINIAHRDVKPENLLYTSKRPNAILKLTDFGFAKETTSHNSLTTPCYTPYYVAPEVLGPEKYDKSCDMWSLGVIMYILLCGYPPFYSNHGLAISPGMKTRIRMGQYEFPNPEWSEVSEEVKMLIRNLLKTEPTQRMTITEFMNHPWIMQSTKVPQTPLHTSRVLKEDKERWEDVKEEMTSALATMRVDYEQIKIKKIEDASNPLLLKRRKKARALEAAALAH
T2 sequence (Q16539 whole entry): as the sequence (Q16539 whole entry) above

IC50 (p38 MAPK/MK2): 2.79 nM
IC50 (p38 MAPK/MK5): 4340 nM
half-life at 1 μM [2]: 2.76 h
half-life at 1 μM [3]: > 4.66 h
Compound: CNC(=O)c1cccc(-c2ncc(C)c(-n3c(C)cc(OCc4ncc(F)cc4F)c(Cl)c3=O)c2F)c1 [Compound 31-P1]
IC50 [1]: 3.79 nM
